Test results from ChEMBL document CHEMBL3046236, “The application of comparative molecular field analysis for the design of -anilino substituted-3-phenyl propanoic acids as novel PPAR/ dual ligands” (Med Chem Res, 2012).
pEC50: −log10 of the molar value.

Columns and labels:
[1] = molecular target: T1, Peroxisome proliferator-activated receptor alpha (Homo sapiens, UniProt Q07869); assay: Transactivation of Homo sapiens (human) PPARalpha assessed as luciferase activity by reporter gene assay
T1 sequence (Q07869 whole entry): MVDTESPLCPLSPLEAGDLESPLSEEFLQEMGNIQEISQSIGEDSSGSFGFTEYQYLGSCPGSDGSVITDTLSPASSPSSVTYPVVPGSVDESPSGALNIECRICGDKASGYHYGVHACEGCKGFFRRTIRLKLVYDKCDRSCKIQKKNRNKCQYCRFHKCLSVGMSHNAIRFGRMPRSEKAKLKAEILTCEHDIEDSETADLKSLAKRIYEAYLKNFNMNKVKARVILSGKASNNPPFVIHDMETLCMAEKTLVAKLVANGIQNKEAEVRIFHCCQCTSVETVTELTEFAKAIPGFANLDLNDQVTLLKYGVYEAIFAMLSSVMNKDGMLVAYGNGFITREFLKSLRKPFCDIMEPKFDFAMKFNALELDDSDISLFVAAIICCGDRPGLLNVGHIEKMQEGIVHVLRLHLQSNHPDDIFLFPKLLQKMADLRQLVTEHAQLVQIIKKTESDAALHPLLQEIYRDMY

[2] = molecular target: T2, Peroxisome proliferator-activated receptor gamma (Homo sapiens, UniProt P37231)
T2 sequence (P37231 whole entry): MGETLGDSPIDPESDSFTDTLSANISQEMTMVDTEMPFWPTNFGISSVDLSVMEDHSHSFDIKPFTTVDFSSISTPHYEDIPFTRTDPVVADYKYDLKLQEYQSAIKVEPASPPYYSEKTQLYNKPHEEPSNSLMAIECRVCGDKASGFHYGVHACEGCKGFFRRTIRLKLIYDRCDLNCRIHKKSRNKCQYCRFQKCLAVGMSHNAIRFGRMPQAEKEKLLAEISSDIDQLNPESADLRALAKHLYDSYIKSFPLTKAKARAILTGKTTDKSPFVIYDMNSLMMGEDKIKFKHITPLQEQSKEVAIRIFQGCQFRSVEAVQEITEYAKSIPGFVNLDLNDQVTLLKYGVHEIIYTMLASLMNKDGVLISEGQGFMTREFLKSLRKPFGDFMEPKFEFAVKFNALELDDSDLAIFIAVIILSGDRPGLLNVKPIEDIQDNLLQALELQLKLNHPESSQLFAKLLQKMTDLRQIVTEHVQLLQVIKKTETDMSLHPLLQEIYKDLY
Description: Transactivation of Homo sapiens (human) PPARgamma assessed as luciferase activity by reporter gene assay

pEC50 [1]	pEC50 [2]	Compound
9.00	9.00	Cc1oc(C2CCCCC2)nc1CCOc1ccc(C[C@H](Oc2ccccc2)C(=O)O)cc1
5.28	5.07	CCO[C@@H](Cc1ccc(OC/C=C(/c2ccccc2)c2ccc(F)cc2)cc1)C(=O)O
5.66	5.37	CCO[C@@H](Cc1ccc(OC/C=C(\c2ccccc2)c2ccc(Br)cc2)cc1)C(=O)O

The remaining lines, values behind:

Compound	pEC50 [1]	pEC50 [2]
Cc1sc(-c2ccncc2)nc1CCOc1ccc(C[C@H](Nc2ccccc2C(=O)c2ccccc2)C(=O)O)cc1	< 5.00	–
CCO[C@@H](Cc1ccc(OCC=C(c2ccc(C)cc2)c2ccc(C)cc2)cc1)C(=O)O	6.16	–
CC(C)O[C@H](Cc1ccc(OCc2noc(-c3cc(C(F)(F)F)cc(C(F)(F)F)c3)n2)cc1)C(=O)O	5.60	6.20
CC(C)O[C@@H](Cc1ccc(OCc2noc(-c3cc(C(F)(F)F)cc(C(F)(F)F)c3)n2)cc1)C(=O)O	8.40	7.50
CCO[C@@H](Cc1ccc(OC/C=C(/c2ccccc2)c2ccc(-c3ccccc3)cc2)cc1)C(=O)O	6.05	–
